Assay results published in patent publication US20060148772A1, “Combination” (priority 2004, published 2006).
Entries after “also recorded” stand apart in the source; their conditions may differ.

Legend:
ZR75.1 (ER+,HER2+) = assay: Proliferation assay, aromatase expressing ZR75.1 clones; assay type: cell-based, Human; conditions: for proliferation response to increasing doses (fold change): ZR75.1 aromatase clones, versus DCC medium alone (E2, androstenedione) or androstenedione alone (4-OH tamoxifen, letrozole); for IC50: Homo sapiens
Procedure: (§1) Human breast cancer cell lines with varying expression of ER and HER2 were engineered to express aromatase. The cell lines were MCF7 (ER+,HER2−), ZR75.1 (ER+,HER2+), BT474 (ER+, HER2++) and SKBR3 (ER−, HER2++).
(§2) Proliferation assays were carried out as follows. The target cell lines listed above were cultured in phenol red-free RPMI 1640 medium containing 10% charcoal stripped foetal calf serum and 10[…]g.ml insulin (DCC medium), with daily changes for 3 days. The cell lines were then seeded in to 12-well plates at an appropriate density (MCF7 1×10^4/well, ZR75.1 2×10^4/well, BT474 2×10^4/well, SKBR3 1×10^4/well). After 24-48 hours, the cell monolayers were treated with increasing concentrations of androstenedione or E2. […] Drug treatments were changed daily over a period of 6 days. Cell number was determined using a Z1 Coulter Counter (Beckman Coulter, UK). With the threshold set at 15 μm diameter, 75% the average 20 μm size of MCF7 cells.

MCF7 (ER+,HER2−) = assay: Proliferation assay, aromatase expressing MCF7 clones; assay type: cell-based, Human; conditions: for proliferation response to increasing doses (fold change): MCF7 aromatase clones, versus DCC medium alone (E2, androstenedione) or androstenedione alone (4-OH tamoxifen, letrozole); for IC50: Homo sapiens
Procedure: as §1, §2

BT474 (ER+, HER2++) = assay: Proliferation assay, aromatase expressing BT474 clones; assay type: cell-based, Human; conditions: for proliferation response to increasing doses (fold change): BT474 aromatase clones, versus DCC medium alone (E2, androstenedione) or androstenedione alone (4-OH tamoxifen, letrozole); for IC50: Homo sapiens
Procedure: as §1, §2

ZR75.1 tumour xenografts = assay: Growth of ZR75.1 tumour xenografts in vivo; set-up: species or system Mice; conditions: ZR75.1A3 xenografts under androstenedione, p.o.
Procedure: Experimental study groups consisted of 6 animals. All tumours were grown to approximately 7 mm diameter under E2 support. Once the tumours were established, the E2 pellet was removed and replaced with androstenedione. Mice were then randomised into cages and treated as described below. Tumours were assessed twice weekly by bi-dimensional caliper measurements and volume calculated based on the volume of a sphere 4/3 […]. Data was expressed as fold change in tumour volume compared to day zero treatment for each treatment group.
Effect of 6-[4-(4-ethyl-piperazin-1-ylmethyl)-phenyl]-7H-pyrrolo[2,3-d]pyrimidin-4-yl}-(1-[phenyl-ethyl)-amine in combination with endocrine therapy was investigated in ZR75.1A3.
Groups: • (i) Vehicle (10% N-methyl-pyrollidone (NMP)/90% polyethylene glycol (PEG 300)).

total or pHER2 = assay: Western blot of HER2 signal transduction: HER2; assay type: cell-based, Human; conditions: 0.1, 1 and 10 μM, 8 hours
Procedure: (§3) Western Blot analysis of the effect of 6-[4-(4-ethyl-piperazin-1-ylmethyl)-phenyl]-7H-pyrrolo[2,3-d]pyrimidin-4-yl}-(1-[phenyl-ethyl)-amine on HER2 signal transduction.
(§4) Target cell lines were stripped of steroid for 3 days in DCC medium prior to seeding at a density of 1.5-2×10^6 cells per 10 cm dish. Monolayers were left to acclimatize for 24 hours prior to treatment with 0, 0.1, 1 and 10 μM 6-[4-(4-ethyl-piperazin-1-ylmethyl)-phenyl]-7H-pyrrolo[2,3-d]pyrimidin-4-yl}-(1-[phenyl-ethyl)-amine in DCC medium for 8 hours. […] The protein concentration was then quantified using BioRad protein assay kit (Bio Rad, UK). […] Filters were blocked (10 mM Tris-HCl, pH 8.3, 150 mM NaCl containing 4% milk powder) washed twice in PBS containing 0.025% Tween-20 and probed with specific antibodies (p HER2 and total HER2 (Upstate, UK), pAKT, total AKT, pMAPK and total MAPK (Cell signaling, UK) and HRP-conjugated secondary antibody (Amersham Pharmacia Biotech, UK). The antibodies were diluted 1/1000 in 1.5% bovine serum albumin, 10 mM Tris-HCl, pH 8.3, 150 mM NaCl, 0.025% Tween-20 and 0.01% sodium azide. Immuno complexes were detected using Ultra-Signal chemiluminescence kit (Pierce and Warriner, UK). Chemiluminescence was quantified using Fluro-S and analysed using Quantity One software (BioRad, UK).

pAKT = assay: Western blot of HER2 signal transduction: AKT; assay type: cell-based, Human; conditions: all of the cell lines tested; 0.1, 1 and 10 μM, 8 hours
Procedure: as §3, §4

pMAPK = assay: Western blot of HER2 signal transduction: MAPK; assay type: cell-based, Human; conditions: 0.1, 1 and 10 μM, 8 hours
Procedure: as §3, §4

[1] = test system: ER-α-mediated transcription; assay: ERα transactivation luciferase reporter assay (pEREtkIIluc); assay type: cell-based, Human
Procedure: ERα transactivation was monitored using a standard reporter construct consisting of two EREs upstream of a minimal thymidine kinase reporter linked to a gene encoding luciferase (pEREtkIIluc). Activity was normalized using a second plasmid consisting of the β-galactosisdase gene downstream of the constitutively active simian virus 40 promoter (SV40)(pCH110). The target cell lines indicated, were cultured in DCC medium as described previously. Cells were then seeded into 24-well plates at a density of 7×10^5 cells/well (MCF7, ZR75.1 and SKBR3). The following day the cells were transfected by lipofectin (Life Technologies, Inc.) at a ratio of 1:2.5 (DNA:lipid) with 0.25 μg of EREIItkluc and 0.25 μg of pCH110 for 4 hours in serum-free phenol red-free RPMI 1640 medium. The cells were subsequently placed in DCC medium and left to recover overnight. BT474 cells were treated similarly but with the exception that cells were seeded at a density of 1×10^5 cells/well and monolayers were transfected by lipofectamine 2000 (Life Technologies, Inc.) at a ratio of 1:2.5 with 0.4 μg pEREtkIIluc and 0.4 μg pCH110 per well for 4 hours. […] After treatment for 24 hours, the luciferase (Promega, UK) and β-galactosidase (Galacton Star, PE Biosystems, UK) activity were measured using a luminometer.

SKBR3 (ER−, HER2++) = assay: Proliferation assay, SKBR3 clones; assay type: cell-based; conditions: Homo sapiens, SK-BR-3; effect on proliferation, fold change compared to DCC medium alone
Procedure: as §1
as §2, with “cells. Cell counts were averaged for each triplicate treatment and normalised against the control sample to give the average fold-difference in cell growth.” for “cells.”

BT474 A3 = assay: Cell cycle FACS analysis (propridium iodide), BT474 A3; assay type: cell-based, Human; conditions: BT474 A3, androstenedione, 72 hours
Procedure: (§5) Cell lines were depleted of steroid for 3 days in DCC medium then seeded in 10 cm dishes at a density of 1×10^6 cells. After 48 hours, appropriate monolayers were pretreated with 6-[4-(4-ethyl-piperazin-1-ylmethyl)-phenyl]-7H-pyrrolo[2,3-d]pyrimidin-4-yl}-(1-[phenyl-ethyl)-amine for 1 hour in DCC medium. […] In the case of MCF7 and ZR75.1 the 6-[4-(4-ethyl-piperazin-1-ylmethyl)-phenyl]-7H-pyrrolo[2,3-d]pyrimidin-4-yl}-(1-[phenyl-ethyl)-amine concentration was increased to 5 μM. Cell were treated for 72 hours then fixed with 70% ethanol and stained with Propridium iodide. FACS analysis was used to establish the effect of the drug combinations on cell cycle.

MCF7A2 cell line = assay: Cell cycle FACS analysis (propridium iodide), MCF7A2; assay type: cell-based, Human; conditions: MCF7A2, androstenedione, 72 hours
Procedure: as §5

| Structure (SMILES) | proliferation response to increasing doses (fold change) (ZR75.1 (ER+,HER2+)) | proliferation response to increasing doses (fold change) (MCF7 (ER+,HER2−)) | proliferation response to increasing doses (fold change) (BT474 (ER+, HER2++)) | tumour growth / tumour volume (fold change compared to day zero) (ZR75.1 tumour xenografts) | number of cells in G0/G1 (BT474 A3) | number of cells in G0/G1 (MCF7A2 cell line) | ER-α-mediated transcription ([1]; ER+ cell lines) | further results |
| --- | --- | --- | --- | --- | --- | --- | --- | --- |
| CC/C(=C(\c1ccc(O)cc1)c1ccc(OCCN(C)C)cc1)c1ccccc1 [4-OH tamoxifen] | dose dependent decrease in proliferation | dose dependent decrease in proliferation | dose dependent decrease in proliferation | as affective as AEE788 | – | – | – | – |
| CCN1CCN(Cc2ccc(-c3cc4c(N[C@H](C)c5ccccc5)ncnc4[nH]3)cc2)CC1 [{6-[4-(4-ethyl-piperazin-1-ylmethyl)-phenyl]-7H-pyrrolo[2,3-d]pyrimidin-4-yl}-(1-[phenyl-ethyl)-amine] | – | – | – | modest inhibitory effect on tumour growth in the magnitude of that seen with tamoxifen | more effective than tamoxifen at arresting cells in G0/G1 | increase in the number of cells in G0/G1 | – | IC50 (ZR75.1 (ER+,HER2+); ZR-75-1, effect on proliferation, fold change compared to DCC medium alone): 2000 to 5000 nM; IC50 (MCF7 (ER+,HER2−); MCF7, effect on proliferation, fold change compared to DCC medium alone): 5000 to 10000 nM; effect on total or pHER2 (total or pHER2): no obvious effect on total or pHER2; effect on pAKT (pAKT): decreased in a dose dependent manner; effect on pMAPK (pMAPK; MCF7 cells): no effect on MCF7 cells; effect on pMAPK (pMAPK; ZR75.1, BT474 and SKBR3 cell lines): decrease of pMAPK; IC50 (BT474 (ER+, HER2++); BT-474, effect on proliferation, fold change compared to DCC medium alone): 500 nM; ER-α-mediated transcription ([1]; cell line BT474 (ER+, HER2++), basal and AND-induced): dose dependent decrease; ER-mediated transcription ([1]; cell lines expressing low levels of HER2 (MCF7 and ZR75.1)): little effect; IC50 (SKBR3 (ER−, HER2++)): 1500 nM |
| C[C@]12CCC(=O)C=C1CC[C@@H]1[C@@H]2CC[C@]2(C)C(=O)CC[C@@H]12 [androstenedione] | dose dependent increase in proliferation | dose dependent increase in proliferation | dose dependent increase in proliferation | – | – | – | increased ER-[…]-mediated transcription in a dose-dependent manner | – |
| C[C@]12CC[C@@H]3c4ccc(O)cc4CC[C@H]3[C@@H]1CC[C@@H]2O [E2] | dose dependent increase in proliferation | dose dependent increase in proliferation | dose dependent increase in proliferation | – | – | – | increased ER-[…]-mediated transcription in a dose-dependent manner | – |
| CC/C(=C(\c1ccccc1)c1ccc(OCCN(C)C)cc1)c1ccccc1 [Tamoxifen] | – | – | – | – | – | increase in the number of cells in G0/G1 | inhibited | – |
| N#Cc1ccc(C(c2ccc(C#N)cc2)n2cncn2)cc1 [Letrozole, 4-[α-(4-cyanophenyl)-1-(1,2,4-triazolyl)methyl]-benzonitrile] | dose dependent decrease in proliferation | dose dependent decrease in proliferation | dose dependent decrease in proliferation | markedly inhibited; also recorded: more effective than 4-OH tamoxifen alone or in combination with AEE788 | more effective than tamoxifen at arresting cells in G0/G1 | increase in the number of cells in G0/G1 | inhibited | IC50 (ZR75.1 (ER+,HER2+); ZR-75-1, 144 h, inhibition of proliferation, aromatase expressing clones, androstenedione, 6 days): 1 nM; IC50 (MCF7 (ER+,HER2−); MCF7, 144 h, inhibition of proliferation, aromatase expressing clones, androstenedione, 6 days): 5 nM; IC50 (BT474 (ER+, HER2++); BT-474, 144 h, inhibition of proliferation, aromatase expressing clones, androstenedione, 6 days): 5 nM |
